Patent publication US8187822B2, “Methods to identify modulators” (Givaudan S.A., priority 2007, dated 2012)

Columns and labels:
Type in all cases: cell-based
TAS2R44 = target: T1, TAS2R44 (Homo sapiens, UniProt P59538, L162M); assay: Fluo-4 calcium assay, HEK293T cells expressing Gα16-gustducin44 and TAS2R44
T1 construct: RSS tag (first 45 amino acids of rat somatostatin receptor subtype 3, plus EcoRI site) (N); expressed in transfected cells
T1 sequence (P59538 with tags, fused parts or gaps L162M): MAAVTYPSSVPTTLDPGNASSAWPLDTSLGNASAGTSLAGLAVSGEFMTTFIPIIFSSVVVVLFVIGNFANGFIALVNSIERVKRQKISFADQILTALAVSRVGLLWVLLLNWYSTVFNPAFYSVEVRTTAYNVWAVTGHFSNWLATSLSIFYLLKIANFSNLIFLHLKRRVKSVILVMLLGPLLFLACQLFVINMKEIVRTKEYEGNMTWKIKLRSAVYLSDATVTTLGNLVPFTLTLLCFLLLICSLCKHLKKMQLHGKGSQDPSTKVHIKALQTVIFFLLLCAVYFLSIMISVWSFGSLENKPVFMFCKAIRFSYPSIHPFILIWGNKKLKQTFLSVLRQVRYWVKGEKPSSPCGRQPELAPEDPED
Method: Cell lines that stably expresses a SABR (TAS2R44, TAS2R1, TAS2R10) was generated by transfecting pcDNA3.1Zeo-SABR into HEK293T/Gα16-gustducin 44 cells (both formed as described in example 1). The host cell line HEK-293T is commercially available from the American Tissue Culture Collection (ATCC), ATCC®# CRL-11268.
The expression of TAS2R44 was evaluated by testing for the presence of a functional response to the known TAS2R44 agonist saccharin (as described in WO 2004/029087) in addition to sucralose, which was determined via automated calcium imaging on the FLIPR-TETRA™ (Molecular Devices, Sunnyvale, Calif., US) as described in example 3. One clone was selected resulting in the HEK293T/Gα16-gustducin 44/TAS2R44 cell line.
Fluo-4AM (Invitrogen, Carlsbad, Calif., US) is a fluorescent indicator of intracellular calcium dynamics (change in concentration) and allows monitoring changes in the calcium concentration, particularly an increase in response to receptor activation occurring after agonist exposure.
(§1) At day 0, the HEK293T cell line expressing Gα16-gustducin44 and a TAS2R bitter taste receptor formed as described in examples 2b or 2c was seeded in antibiotic-free growth medium (standard DMEM with 10% (v/v) heat-inactivated fetal bovine serum, 2 mM L-glutamine[…]) into black wall/clear bottom 96-well plates, coated with poly(ethylenimine) (0.005% v/v) at a concentration of 15,000 cells per well and incubated for 48 hours in humidified atmosphere (37° C., 5% CO2).
(§2) At the time of the assay, the growth medium was discarded and the cells were in humidified atmosphere (37° C., 5% CO2) for 1 hour with 50 μl of loading buffer consisting of 1.5 μM Fluo-4 AM and […] probenicid (Sigma-Aldrich, St. Louis, Mo., US) in DMEM.
(§3) Afterwards, the 96-well plate was washed 5 times with 100 μl of assay buffer (130 mM NaCl, 5 mM KCl, 10 mM HEPES, 2 mM CaCl2, and 5 mM dextrose, pH 7.4) per well, using an automated plate washer (BioTek). The plate was further incubated for 30 minutes at room temperature in the dark to allow for complete de-esterification of the Fluo-4. Afterwards the plate was washed 5 times with 100 μl of assay buffer per well, and reconstituted with 100 μl of assay buffer per well.
(§4) For assay reading, the plate was placed in a Fluorometric Imaging Plate Reader (FLIPR) (FLIPR-TETRA™, Molecular Devices, Sunnyvale, Calif., US), and receptor activation was initiated by addition of 100 μl of a twofold concentrated agonist stock solution (to give the desired agonist end concentration when added to the 100 microliter assay buffer volume), which was prepared in assay buffer.
(§5) Fluorescence was continuously monitored for 20 seconds to give a signal baseline (averaged to give F0) prior to agonist addition and for 120 seconds after agonist addition. The change in signal divided by F0 gives ΔF/F0 indicated in the table, with ΔF being the maximum signal occurring within the 120 seconds minus the minimum signal (occurring within the 120 seconds after agonist addition.
(§6) All data was collected from at least two independent experiments each carried out in triplicate.
(§7) A concentration-response analysis was performed and EC50 values were calculated by nonlinear regression using the function f(x)=(a−d)/(1+(x/C)^nh)+d; with a=minimum signal, d=maximum signal, nh=hill coefficient, C=EC50, and x=agonist concentration. EC50 is the molar concentration of an agonist which produces 50% of the maximum possible effective response for that agonist.
The obtained calcium signals were corrected for the response of cells expressing only the G Protein α subunit (Gα16-gustducin44) and normalized to the fluorescence of cells prior to the stimulus using ΔF/F0 (Fmax−Fmin/F0). […]

TAS2R16 = target: T2, TAS2R16 (Homo sapiens, UniProt Q9NYV7); assay: Fluo-4 calcium assay, cells expressing TAS2R16 (control of antagonist specificity)
T2 construct: The full length gene of human TAS2R44 was amplified by polymerase chain reaction (PCR) using gene-specific primers that span the entire coding region; RSS tag (first 45 amino acids of rat somatostatin receptor subtype 3) (N); expressed in transfected cells; host or cells: HEK293T cells expressing Gα16-gustducin44
T2 sequence (Q9NYV7 1-291): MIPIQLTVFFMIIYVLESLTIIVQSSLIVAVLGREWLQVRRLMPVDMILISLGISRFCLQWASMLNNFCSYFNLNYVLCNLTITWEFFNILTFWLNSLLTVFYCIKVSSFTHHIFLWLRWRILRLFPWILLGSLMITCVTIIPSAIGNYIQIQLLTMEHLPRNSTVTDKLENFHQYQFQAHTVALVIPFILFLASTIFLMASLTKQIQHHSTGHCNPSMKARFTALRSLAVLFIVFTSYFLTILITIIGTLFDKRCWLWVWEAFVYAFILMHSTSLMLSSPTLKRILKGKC
Method: as §1, §2, §3, §4, §5, §6, §7
(§8) The obtained calcium signals were corrected for the response of cells expressing only the G Protein α subunit (Gα16-gustducin44) and normalized to the fluorescence of cells prior to the stimulus using ΔF/F0 (Fmax−Fmin/F0).
All cells were HEK293T cells stably expressing Gα16-gustducin44, or expressing Gα16-gustducin44 and a TAS2R receptor (TAS2R44, TAS2R16).
The method was carried out as described in example 3 subject to the following modifications: The samples were tested with and without test compound A (test cpd A) and the signals were compared. The test compound was dissolved in dimethylsulfoxide (DMSO), and a negative control with equivalent DMSO concentration (0.02%) was performed accordingly to exclude a potential inhibitory effect of the solvent.
As a control of antagonist specificity, the response of an unrelated bitter taste receptor (TAS2R16) to its agonist phenyl-β-glucopyranosides is also detected (see results in table 8 herein below).

[1] = test system: cells expressing only Gα16gustducin44 but no TAS2 receptor; assay: Fluo-4 calcium assay, negative control cells without bitter receptor
Method: HEK293T/Gα16-gustducin 44 cells were used; they are formed as described in WO 2004/055048. The host cell line HEK-293T is commercially available from the American Tissue Culture Collection (ATCC), ATCC®# CRL-11268
as §1, §2, §3, §4, §5, §8
To confirm that the cell line formed in example 2c stably expresses the bitter taste receptor TAS2R44, a concentration-response curve for saccharin, a known agonist of TAS2R44, was generated. […] The standard deviation (+/−STD) is also indicated.
As a negative control to determine unspecific signals, each of the applied concentrations of sucralose was applied to cells expressing only Gα16gustducin44.
As a negative control, each agonist and each agonist with the antagonist/test compound (test cpd A) is applied to cells expressing only Gal 6gustducin44 but no TAS2 receptor (see results in table 7 herein below).

## CC1CCC(CCCC(N)=O)C1(C)C (stereo not drawn) [test cpd B, 4-(2,2,3-trimethylcyclopentyl)butanamide]
TAS2R44; test compound at 25 μM
  effect on the response of TAS2R44 to sucralose, in words: had no effect
TAS2R16; test compound at 25 μM
  effect on the response of TAS2R16 to phenyl-β-glucopyranoside, in words: did not effect the response
[1]; test compound at 25 μM
  response in cells not expressing TAS2R44 (negative control), in words: did not elicit a response

## O=C1NS(=O)(=O)c2ccccc21 [Saccharin, saccharin]
[1]; host cells expressing only Gα16-gustducin44
  signal in negative control, in words: did not show any significant change in signal
[1]; saccharin 0.0391 mM
  Neg. Control ΔF/F0: 0.016
[1]; saccharin 0.0781 mM
  Neg. Control ΔF/F0: 0.014
[1]; saccharin 0.1563 mM
  Neg. Control ΔF/F0: 0.014
[1]; saccharin 0.3125 mM
  Neg. Control ΔF/F0: 0.012
[1]; saccharin 0.6250 mM
  Neg. Control ΔF/F0: 0.014
[1]; saccharin 1.2500 mM
  Neg. Control ΔF/F0: 0.014
[1]; saccharin 2.5000 mM
  Neg. Control ΔF/F0: 0.013
[1]; saccharin 5.0000 mM
  Neg. Control ΔF/F0: 0.018
[1]; saccharin 10.0000 mM
  Neg. Control ΔF/F0: 0.020

## OC[C@H]1O[C@@H](Oc2ccccc2)[C@H](O)[C@@H](O)[C@@H]1O [P-β-G, phenyl-β-glucopyranoside]
TAS2R16; P-β-G alone 0.0391 mM
  P-β-G ΔF/F0: 0.012
TAS2R16; P-β-G alone 0.0781 mM
  P-β-G ΔF/F0: 0.213
TAS2R16; P-β-G alone 0.1563 mM
  P-β-G ΔF/F0: 0.926
TAS2R16; P-β-G alone 0.3125 mM
  P-β-G ΔF/F0: 1.810
TAS2R16; P-β-G alone 0.6250 mM
  P-β-G ΔF/F0: 2.284
TAS2R16; P-β-G alone 1.2500 mM
  P-β-G ΔF/F0: 2.361
TAS2R16; P-β-G alone 2.5000 mM
  P-β-G ΔF/F0: 2.578
TAS2R16; P-β-G alone 5.0000 mM
  P-β-G ΔF/F0: 2.693
TAS2R16; P-β-G alone 10.0000 mM
  P-β-G ΔF/F0: 2.876
TAS2R16; agonist P-β-G alone, TAS2R16
  EC50: 210 ± 20 µM

## COC(=O)[C@H](Cc1ccccc1)NC(=O)[C@@H](N)CC(=O)O [aspartame]
TAS2R44; cells stably expressing human TAS2R44
  agonist activity at TAS2R44 (calcium signaling), in words: not to be agonists for TAS2R44
